# Experimental data taken from patent US10369159B2, “Estrogen receptor β partial agonist having estrogen receptor α inhibitory effect, and gynecological disease therapeutic agent using same” (NOBELPHARMA CO., LTD., priority 2015, dated 2019).
# How the values were obtained:
# PR = experiment: Gene expression analysis of endometrial implants (TaqMan), PR; type: in vivo, rat; conditions: for Expression level PR: endometrial implants, corrected by GAPDH, n 6, E2 control 101.0 ± 40.3
# Experimental: (§1) Total RNA was extracted […] the rat-derived endometrial graft (27 specimens), then quality of the RNA was inspected with a spectrophotometer and bio-analyzer, and then reverse transcription reaction of the RNA was performed, followed by gene expression analysis was performed according to TaqMan method.
# (§2) RNA was extracted from the rat uterine horn strips and grafted uterine strip using the RNeasy Fibrous Tissue Mini Kit.
# (§3) Concentration of the extracted RNA was measured with a NanaoDrop. Also RIN measurements using a bioanalyzer (6000 nano kits) was carried out. A 6000 pico-kit was used for bioanalyzing of the two samples with low yield (Sample ID: 202, 507).
# (§4) cDNA obtained by reverse transcription reaction from 1000 ng/uL of commercially available Rat Tissue Universal Reference Total RNA (Catalog Number PR-UR-100, ZYAGEN Inc.) using SuperScript VILO Master Mix (hereinafter “Standard”) was used as a standard substance.
# (§5) Based on the concentration measured with a spectrophotometer, reverse transcription reaction of the specimen with Super Script VILO Master Mix was performed to give 50 ng/uL of cDNA (the following example). As for the samples with low yield, that is Sample ID: 202, 502, 507, the reverse transcription reaction was performed to give 25 ng/uL, 25 ng/uL, and 12.5 ng/uL of cDNA, respectively.
# (§6) TaqMan reaction by using Step One Plus Real-Time PCR System was performed with standard 250, 62.5, 15.625, 3.9, 0.98 ng/well or sample 5.0 ng/well. A cycle of reaction, two minutes at 50° C. and 10 minutes at 95° C., followed by 15 seconds at 95° C. and one minute at 60° C., was repeated 40 cycles, then the fluorescence value FAM was measured in real time after the reaction at 60° C. In addition to the target eight genes, GAPDH gene as an internal control gene was measured. All the standards and samples were measured in triplicate.
# (§7) From each of the two calibration curves (target gene, GAPDH gene) obtained from the standard, gene expressions level of the target gene and GAPDH gene of the sample was calculated, respectively. Then, the target gene expression level was corrected by the GAPDH gene expression level, the internal control gene. And then, an average gene expression level of the samples in each group was calculated, followed by the average gene expression level of the two groups was used as a standard to compare with each of the other groups.
# VEGF = experiment: Gene expression analysis of endometrial implants (TaqMan), VEGF; type: in vivo, rat; conditions: for Expression level VEGF: endometrial implants, corrected by GAPDH, n 6, E2 control 1.62 ± 0.43
# Experimental: as §1, §2, §3, §4, §5, §6, §7
# PEDF = experiment: Gene expression analysis of endometrial implants (TaqMan), PEDF; type: in vivo, rat; conditions: for Expression level PEDF: endometrial implants, corrected by GAPDH, n 6, E2 control 4.51 ± 1.39
# Experimental: as §1, §2, §3, §4
# (§8) Based on the concentration measured with a spectrophotometer, reverse transcription reaction of the specimen with Super Script VILO Master Mix was performed to give 50 ng/uL of cDNA (the following example). […]
# as §6
# (§9) From each of the two calibration curves (target gene, GAPDH gene) obtained from the standard, gene expressions level of the target gene and GAPDH gene of the sample was calculated, respectively. […] And then, an average gene expression level of the samples in each group was calculated, followed by the average gene expression level of the two groups was used as a standard to compare with each of the other groups.
# Era = experiment: Gene expression analysis of endometrial implants (TaqMan), Era; type: in vivo, rat; conditions: for Expression level Era: endometrial implants, corrected by GAPDH, n 6, E2 control 44.2 ± 18.9
# Experimental: as §1, §2, §3, §4, §5, §6, §7
# rat endometriosis model = experiment: Wet weight of each organ (pituitary, adrenal glands, left uterine horn, femur) in the rat endometriosis model; type: in vivo; conditions: for Wet weight of pituitary: vehicle 0.0271 g; for Wet weight of adrenal gland (right): vehicle 0.0425 g; for Wet weight of adrenal gland (left): vehicle 0.0468 g; for Wet weight of adrenal glands (the sum of the left and right): vehicle 0.0893 g; for Wet weight of left uterine horn: vehicle 0.1428 g; for Wet weight of femur (left): vehicle 0.7589 g
# Experimental: On the previous day of the model preparation (the grouping date), under inhalation anesthesia of 2% isoflurane, an incision was made in the abdomen of the rats. Subsequently, about 5 mL of blood was collected with a syringe from the abdominal vena cava and collected in a Venoject II vacuum blood collection tube (EDTA-2K), then cut the abdominal vena cava and abdominal aorta to euthanize by exsanguination. The right uterine horn was excised and cut out two strips (approximately 5 mm×5 mm), then cut out strips (approximately 5 mm×5 mm) from the graft sites, the right and left abdominal walls (muscle layer and peritoneum). After that, wet weight of each strip and abdominal wall was measured. Then pituitary, adrenal glands (both sides), left uterine horn, mammary gland (excised with the nipples, three on the lower abdomen, a sample for RNA measurement was approximately 3 mm in diameter) and femur (left side) were excised.
# As for the pituitary, adrenal glands (both sides), left uterine horn and femur, wet weight was measured. The femur bone after wet weight measurement was discarded.
# The administration was made orally, and the drug was forcibly administered into a stomach once a day using a flexible oral sonde and syringe for 28 consecutive days.
# On the next day of the final administration, the abdominal dissection was made under inhalation anesthesia of 2% isoflurane, and the grafted uterine strips (two pieces) were excised, and photographed with a digital camera. Subsequently, about 5 mL of blood was collected with a syringe from the abdominal vena cava and collected in a Venoject II vacuum blood collection tube (EDTA-2K), then cut the abdominal vena cava and abdominal aorta to euthanize by exsanguination. Then pituitary, adrenal glands (both sides), graft uterine strips (two pieces), left uterine horn, mammary gland (excised with the nipples, three on the lower abdomen, a sample for RNA measurement was approximately 3 mm in diameter) and femur (left side) were excised.
# As for the pituitary, adrenal glands (both sides), grafted uterine strip (one piece), left uterine horn and femur, wet weight was measured. The femur bone after wet weight measurement was discarded.
# IL-6 = experiment: Gene expression analysis of endometrial implants (TaqMan), IL-6; type: in vivo, rat; conditions: for Expression level IL-6: endometrial implants, corrected by GAPDH, n 6, E2 control 14.24 ± 8.74
# Experimental: as §1, §2, §3, §4, §8, §6, §9
# Erb = experiment: Gene expression analysis of endometrial implants (TaqMan), Erb; type: in vivo, rat; conditions: for Expression level Erb: endometrial implants, corrected by GAPDH, n 6, E2 control 2.37 ± 1.07
# Experimental: as §1, §2, §3, §4, §5, §6, §7
# MCP-1 = experiment: Gene expression analysis of endometrial implants (TaqMan), MCP-1; type: in vivo, rat; conditions: corrected by GAPDH, n 6, E2 control 29.47 ± 20.81
# Experimental: as §1, §2, §3, §4, §8, §6, §9
# [1] = in comparison with the E2 control group
smiles,measurement,setting,value
"CCN(CC)Cc1ccc(OCC[C@H]2CC[C@H]3[C@@H]4[C@H](C)Cc5cc(O)ccc5[C@H]4CC[C@]23C)c(OC)c1 [SR16234, (7α)-21-[4-[(diethylamino)methyl]-2-methoxyphenoxy]-7-methyl-19-norpregna-1,3,5(10)-triene-3-ol]",Expression level PR,PR; 0.1 mg/kg,94.6 ± 37.7 ng
same,Expression level PR,PR; 0.3 mg/kg,176.2 ± 81.1 ng
same,Expression level PR,PR; 1 mg/kg,127.8 ± 89.1 ng
same,Effect on gene expression of PR (in words),PR; [1],slight increase trend
same,Expression level VEGF,VEGF; 0.1 mg/kg,1.44 ± 0.43 ng
same,Expression level VEGF,VEGF; 0.3 mg/kg,1.65 ± 0.40 ng
same,Expression level VEGF,VEGF; 1 mg/kg,1.33 ± 0.57 ng
same,Effect on the gene expression of VEGF (in words),VEGF; [1],No effect
same,Expression level PEDF,PEDF; 0.1 mg/kg,6.44 ± 1.56 ng
same,Expression level PEDF,PEDF; 1 mg/kg,5.93 ± 3.01 ng
same,Effect on the gene expression of PEDF (in words),"PEDF; in comparison with the E2 control group, FIG. 2",increase trend
same,Expression level Era,Era; 0.1 mg/kg,39.3 ± 14.3 ng
same,Expression level Era,Era; 0.3 mg/kg,47.6 ± 14.9 ng
same,Expression level Era,Era; 1 mg/kg,33.2 ± 20.7 ng
same,Effect on the estrogen receptor gene expression of Era (in words),Era; [1],not observed
same,Wet weight of pituitary,rat endometriosis model; 0.1 mg/kg p.o. 28 days,0.0226 g
same,Wet weight of adrenal gland (right),rat endometriosis model; 0.1 mg/kg p.o. 28 days,0.0400 g
same,Wet weight of adrenal gland (left),rat endometriosis model; 0.1 mg/kg p.o. 28 days,0.0438 g
same,Wet weight of adrenal glands (the sum of the left and right),rat endometriosis model; 0.1 mg/kg p.o. 28 days,0.0838 g
same,Wet weight of left uterine horn,rat endometriosis model; 0.1 mg/kg p.o. 28 days,0.1261 g
same,Wet weight of femur (left),rat endometriosis model; 0.1 mg/kg p.o. 28 days,0.7597 g
same,Weight trend in comparison with the vehicle control group after the Day 14 (in words),rat endometriosis model; 0.3 mg/kg and 0.1 mg/kg administered group,very mild weight suppression trend
same,Wet weight of pituitary,rat endometriosis model; 0.3 mg/kg p.o. 28 days,0.0187 g
same,Wet weight of adrenal gland (right),rat endometriosis model; 0.3 mg/kg p.o. 28 days,0.0381 g
same,Wet weight of adrenal gland (left),rat endometriosis model; 0.3 mg/kg p.o. 28 days,0.0398 g
same,Wet weight of adrenal glands (the sum of the left and right),rat endometriosis model; 0.3 mg/kg p.o. 28 days,0.0779 g
same,Wet weight of left uterine horn,rat endometriosis model; 0.3 mg/kg p.o. 28 days,0.1119 g
same,Wet weight of femur (left),rat endometriosis model; 0.3 mg/kg p.o. 28 days,0.7598 g
same,Wet weight of pituitary,rat endometriosis model; 1.0 mg/kg p.o. 28 days,0.0174 g
same,Wet weight of adrenal gland (right),rat endometriosis model; 1.0 mg/kg p.o. 28 days,0.0357 g
same,Wet weight of adrenal gland (left),rat endometriosis model; 1.0 mg/kg p.o. 28 days,0.0375 g
same,Wet weight of adrenal glands (the sum of the left and right),rat endometriosis model; 1.0 mg/kg p.o. 28 days,0.0732 g
same,Wet weight of left uterine horn,rat endometriosis model; 1.0 mg/kg p.o. 28 days,0.1016 g
same,Wet weight of femur (left),rat endometriosis model; 1.0 mg/kg p.o. 28 days,0.7301 g
same,Wet weight of organs in comparison with the vehicle control group (in words),"rat endometriosis model; SR16234 administered groups, 0.1, 0.3 and 1.0 mg/kg",decreasing trend associated with the dose increase
same,Expression level IL-6,IL-6; 0.1 mg/kg,9.77 ± 9.78 ng
same,Expression level IL-6,IL-6; 1 mg/kg,6.74 ± 4.96 ng
same,Effect on the gene expression of IL-6 (in words),"IL-6; in comparison with the E2 control group, FIG. 3",dose-dependently inhibited
same,Expression level Erb,Erb; 0.1 mg/kg,4.05 ± 1.88 ng
same,Expression level Erb,Erb; 0.3 mg/kg,3.05 ± 1.02 ng
same,Expression level Erb,Erb; 1 mg/kg,2.08 ± 1.51 ng
same,Effect on the estrogen receptor gene expression of Erb (in words),Erb; [1],not observed
same,Expression level MCP-1,MCP-1; 0.1 mg/kg,41.95 ± 21.68 ng
same,Expression level MCP-1,MCP-1; 0.3 mg/kg,28.30 ± 10.93 ng
same,Expression level MCP-1,MCP-1; 1 mg/kg,26.70 ± 18.30 ng
